Reference: patent US20240109881A1, “Heteroaryl Compounds as Ligand Directed Degraders of IRAK4” (Bristol-Myers Squibb Company, priority 2022, published 2024)

Target: T1, IRAK4 (Homo sapiens, UniProt Q9NWZ3)
T1 construct: endogenous in cells; host or cells: THP-1 cells
T1 sequence (Q9NWZ3 1-460): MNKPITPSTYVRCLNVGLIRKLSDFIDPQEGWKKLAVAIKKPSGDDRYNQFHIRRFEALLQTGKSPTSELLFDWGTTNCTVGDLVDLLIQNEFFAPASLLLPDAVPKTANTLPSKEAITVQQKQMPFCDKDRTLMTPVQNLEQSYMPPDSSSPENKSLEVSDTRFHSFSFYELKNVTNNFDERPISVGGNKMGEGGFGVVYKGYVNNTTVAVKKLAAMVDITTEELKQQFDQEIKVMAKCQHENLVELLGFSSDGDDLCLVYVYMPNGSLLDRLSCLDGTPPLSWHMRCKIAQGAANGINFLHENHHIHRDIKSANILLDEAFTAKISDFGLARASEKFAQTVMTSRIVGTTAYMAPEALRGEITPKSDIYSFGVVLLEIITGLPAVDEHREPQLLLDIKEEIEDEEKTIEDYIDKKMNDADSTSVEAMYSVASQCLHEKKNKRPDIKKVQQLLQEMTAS
Experiment: LVL THP1 HTRF (THP1 Homogeneous Time Resolved Fluorescence)
Format: cell-based
Details: THP1 cells, 18 h incubation with compound; for DC50: read-out: LVL THP1 HTRF EC50
Description: Cell culture media was prepared in a tissue culture hood in a sterile environment by adding 10% FBS and 1% Penicillin Streptomycin to 500 mL no phenol red RPMI 1640 media. The media was filtered through a Nalgene Bottle Top Filter and stored at 4° C.
For Homogenous Time Resolved Fluorescence (HTRF) assays, a Cisbio HTRF kit was used, which included: Lysis Buffer #1 4×, Blocking Reagent #3 100×, 20× Antibody 1 (Anti-IRAK4 d2), 20× Antibody 2 (Anti-IRAK4 k), and Detection Buffer.
The THP1 plates were prepared by the following method. For each dosing plate, a duplicate for CTG assay was prepared. Two THP-1 T-175 flasks could be used to plate one 384 well plate. The cells were collected from two T-175 flasks into 200 mL centrifuge tubes and spun down at 1200 rpm for 10 min. The supernatant was removed completely and cells were resuspended in 7.5 mL cell culture media. To 5 μL of the cell suspension was added 25 μL of media and 30 μL of Trypan Blue stain. The cells were counted using countess (automated cell counter, Thermo Fisher Scientific) twice and the viability and live cell count was recorded. The actual cell count was […] the live cell count. Based on the count, a cell suspension was prepared in colorless RPMI media for a final concentration of 7.5e6 cells/mL. Using Standard cassette multidrop combi, 20 μL of the 7.5e6 cells/mL cell stock was added to entire 384 well plate but for top half of column 1 (negative control) The multidrop combi was always primed to achieve a steady flow and washed after use with 20 mL de-ionized water followed by 20 mL alcohol. The cells were incubated in 5% CO2 incubator at 37° C.
Dosing was conducted using the following method. To dose assay plates and CTG plate was added 20 nL of compounds in DMSO using Echo (Beckman Coulter), and the plates were incubated at 37° C. for 18 h. The compound plates were spun at 1200 rpm for 1 min before dosing. The compound plate was sealed and properly stored during incubation.
After dosing, an HTRF assay was conducted using the following method. The treatment plates (IRAK4_HTRF) were centrifuged at 600 g for 10 min. Using CyBio Felix, Automated liquid handler (Analytikjena), 13 μL cell culture media was removed. To all columns, 7.5 μL lysis buffer was added, and an additional 7.5 μL of lysis buffer was added to column 1(top half, negative control). The plate was incubated on a shaker at room temperature for 2 h. The plate was spun down at 600 g for 5 min. Custom 20×IRAK4 Antibody obtained from CISBIO Anti-IRAK4-d2 (acceptor Ab) and Anti-IRAK4-K (donor Ab) were diluted to 1× antibody mix Using a multichannel repeater, 4 μL of 1× antibody mix was added to each wellThe plate was spun down at 600 g for 5 min and incubated in the dark at room temperature for 18 h The next day (after 18 hrs), HTRF assay plate was spun down at 600 g for 5 min and read at 665/615 nm using a Envision plate reader.

SMILES	LVL THP1 HTRF YMIN	DC50
C[C@H](C#N)Nc1cc(-n2ncc3cc(C#N)cnc32)ncc1-n1cc([C@H]2CC[C@H](CCN3CCN(c4ccc(C5(C)CCC(=O)NC5=O)cc4)CC3)CC2)nn1 (single isomer, unassigned) [P-204]	1.8%	7 nM
C[C@H](C#N)Nc1cc(-n2ncc3cc(C#N)cnc32)ncc1-n1cc(C2CCC(CCN3CCN(c4ccc(C5CCC(=O)NC5=O)cc4)C4COCC43)CC2)nn1 (single isomer, unassigned) [P-235]	2.6%	29 nM
C[C@H](C#N)Nc1cc(-n2ncc3cc(C#N)cnc32)ncc1-n1cc(C2CCC(CCN3CCN(c4ccc(C5CCC(=O)NC5=O)cc4)C4COCC43)CC2)nn1 (single isomer, unassigned) [P-237]	2.8%	7 nM
C[C@H](C#N)Nc1cc(-n2ncc3cc(C#N)c(N)nc32)ncc1C(=O)N[C@H]1CC[C@H](CCN2CCN(c3ccc([C@@]4(C)CCC(=O)NC4=O)cn3)[C@@H](C)C2)CC1 (single isomer, unassigned) [P-249]	1.9%	2.3 nM
C[C@H](C#N)Nc1cc(-n2ncc3cc(C#N)c(N)nc32)ncc1-n1cc([C@H]2CC[C@H](CCN3[C@@H](C)CN(c4ccc([C@@]5(C)CCC(=O)NC5=O)cn4)C[C@@H]3C)CC2)nn1 (single isomer, unassigned) [P-252]	1.7%	5.4 nM
C[C@H](C#N)Nc1cc(-n2ncc3cc(C#N)c(N)nc32)ncc1-n1cc([C@H]2CC[C@H](CCN3[C@H](C)CN(c4ccc([C@@]5(C)CCC(=O)NC5=O)cn4)C[C@H]3C)CC2)nn1 (single isomer, unassigned) [P-253]	9.4%	48.7 nM
C[C@H](C#N)Nc1cc(-n2ncc3cc(C#N)c(N)nc32)ncc1-n1cc([C@H]2CC[C@H](CCN3[C@@H](C)CN(c4ccc([C@@]5(C)CCC(=O)NC5=O)cn4)C[C@@H]3C)CC2)nn1 (single isomer, unassigned) [P-254]	91.0%	21.7 nM
C[C@H](C#N)Nc1cc(-n2ncc3cc(C#N)c(N)nc32)ncc1-n1cc([C@H]2CC[C@H](CCN3[C@H](C)CN(c4ccc([C@@]5(C)CCC(=O)NC5=O)cn4)C[C@H]3C)CC2)nn1 (single isomer, unassigned) [P-255]	90.4%	12.4 nM
C[C@H](C#N)Nc1cc(-n2ncc3cc(C#N)c(N)nc32)ncc1-n1cc([C@H]2CC[C@H](CCN3CCN(c4ccc([C@@]5(C)CCC(=O)NC5=O)nc4)[C@@H](C)C3)CC2)nn1 (single isomer, unassigned) [P-257]	34.7%	92.8 nM
C[C@H](C#N)Nc1cc(-n2ncc3cc(C#N)c(N)nc32)ncc1-n1cc([C@H]2CC[C@H](CCN3CCN(c4ccc([C@@]5(C)CCC(=O)NC5=O)cn4)[C@@H](C)C3)CC2)nn1 (single isomer, unassigned) [P-258]	2.0%	6.9 nM
C[C@H](C#N)Nc1cc(-n2ncc3cc(C#N)c(N)nc32)ncc1-n1cc([C@H]2CC[C@H](CCN3CCN(c4ccc([C@@]5(C)CCC(=O)NC5=O)cn4)[C@@H](C)C3)CC2)nn1 (single isomer, unassigned) [P-259]	89.5%	26.1 nM
C[C@H](C#N)Nc1cc(-n2ncc3cc(C#N)c(N)nc32)ncc1-n1cc([C@H]2CC[C@H](CCN3CCN(c4ccc([C@@]5(C)CCC(=O)NC5=O)cn4)[C@H](C)C3)CC2)nn1 (single isomer, unassigned) [P-262]	8.7%	17.1 nM
C[C@H](C#N)Nc1cc(-n2ncc3cc(C#N)c(N)nc32)ncc1-n1cc([C@H]2CC[C@H](CCN3CCN(c4cnc([C@@]5(C)CCC(=O)NC5=O)nc4)CC3)CC2)nn1 (single isomer, unassigned) [P-263]	9.0%	25.7 nM
C[C@H](C#N)Nc1cc(-n2ncc3cc(C#N)c(N)nc32)ncc1-n1cc([C@H]2CC[C@H](CCN3CCN(c4cnc([C@@]5(C)CCC(=O)NC5=O)nc4)CC3)CC2)nn1 (single isomer, unassigned) [P-264]	94.6%	7.2 nM
C[C@H](C#N)Nc1cc(-n2ncc3cc(C#N)c(N)nc32)ncc1-n1cc([C@H]2CC[C@H](CCN3CCN(c4ccc([C@@]5(C)CCC(=O)NC5=O)cn4)CC3)CC2)nn1 (single isomer, unassigned) [P-265]	93.2%	1000 nM
C[C@H](C#N)Nc1cc(-n2ncc3cc(C#N)c(N)nc32)ncc1-n1cc([C@H]2CC[C@H](CCN3CCN(c4cnc([C@@]5(C)CCC(=O)NC5=O)cn4)CC3)CC2)nn1 (single isomer, unassigned) [P-267]	54.7%	94.7 nM
C[C@H](C#N)Nc1cc(-n2ncc3cc(C#N)c(N)nc32)ncc1-n1cc([C@H]2CC[C@H](CCN3CCN(c4cnc([C@@]5(C)CCC(=O)NC5=O)cn4)CC3)CC2)nn1 (single isomer, unassigned) [P-268]	−0.2%	2.1 nM
C[C@H](C#N)Nc1cc(-n2ncc3cc(C#N)cnc32)ncc1C(=O)N[C@H]1CC[C@H](CCN2CCN(c3ccc([C@@]4(C)CCC(=O)NC4=O)cn3)[C@@H](C)C2)CC1 (single isomer, unassigned) [P-276]	6.0%	11.4 nM
C[C@H](C#N)Nc1cc(-n2ncc3cc(C#N)cnc32)ncc1-n1cc([C@H]2CC[C@](O)(CCN3CCN(c4ccc([C@@]5(C)CCC(=O)NC5=O)nc4)CC3)CC2)nn1 (single isomer, unassigned) [P-280]	47.7%	107 nM
C[C@H](C#N)Nc1cc(-n2ncc3cc(C#N)cnc32)ncc1-n1cc([C@H]2CC[C@H](CCN3C[C@@H]4CN(c5ccc([C@@]6(C)CCC(=O)NC6=O)cc5)C[C@@H]4C3)CC2)nn1 (single isomer, unassigned) [P-281]	24.0%	106 nM
C[C@H](C#N)Nc1cc(-n2ncc3cc(C#N)cnc32)ncc1-n1cc([C@H]2CC[C@H](CCN3CC[C@H](c4ccc([C@@]5(C)CCC(=O)NC5=O)cc4)C[C@H]3C)CC2)nn1 (single isomer, unassigned) [P-282]	1.0%	3.4 nM
C[C@H](C#N)Nc1cc(-n2ncc3cc(C#N)cnc32)ncc1-n1cc([C@H]2CC[C@H](CCN3CC[C@@H](c4ccc([C@@]5(C)CCC(=O)NC5=O)cc4)C[C@@H]3C)CC2)nn1 (single isomer, unassigned) [P-283]	5.2%	5.7 nM
C[C@H](C#N)Nc1cc(-n2ncc3cc(C#N)cnc32)ncc1-n1cc([C@H]2CC[C@H](CCN3CC[C@H]4[C@@H]3CCN4c3ccc([C@@]4(C)CCC(=O)NC4=O)nc3)CC2)nn1 (single isomer, unassigned) [P-286]	6.6%	8.5 nM
C[C@H](C#N)Nc1cc(-n2ncc3cc(C#N)cnc32)ncc1-n1cc([C@H]2CC[C@H](CCN3CC[C@H]4[C@@H]3CCN4c3ccc([C@@]4(C)CCC(=O)NC4=O)nc3)CC2)nn1 (single isomer, unassigned) [P-287]	51.0%	1350 nM
C[C@H](C#N)Nc1cc(-n2ncc3cc(C#N)cnc32)ncc1-n1cc([C@H]2CC[C@H](CCN3CC[C@H]4[C@@H]3CCN4c3ccc([C@@]4(C)CCC(=O)NC4=O)nc3)CC2)nn1 (single isomer, unassigned) [P-288]	4.7%	7.1 nM
